Assay results as given in patent publication US8329706B2, “Oxazolidinone derivatives” (Actelion Pharmaceuticals Ltd., priority 2009, dated 2012).

Columns and labels:
human orexin-1 receptor = molecular target: T1, human orexin-1 receptor (Homo sapiens, UniProt O43613); assay: FLIPR intracellular calcium assay, orexin receptor antagonistic activity (OX1); assay type: cell-based; conditions: CHO cells expressing human orexin-1 receptor; agonist 3 nM orexin-A; normalized to on-plate reference; * geomean n = 5, *2 geomean n = 2
T1 construct: expressed in transfected cells; host or cells: CHO cells (G418 selection)
T1 sequence (O43613 1-425): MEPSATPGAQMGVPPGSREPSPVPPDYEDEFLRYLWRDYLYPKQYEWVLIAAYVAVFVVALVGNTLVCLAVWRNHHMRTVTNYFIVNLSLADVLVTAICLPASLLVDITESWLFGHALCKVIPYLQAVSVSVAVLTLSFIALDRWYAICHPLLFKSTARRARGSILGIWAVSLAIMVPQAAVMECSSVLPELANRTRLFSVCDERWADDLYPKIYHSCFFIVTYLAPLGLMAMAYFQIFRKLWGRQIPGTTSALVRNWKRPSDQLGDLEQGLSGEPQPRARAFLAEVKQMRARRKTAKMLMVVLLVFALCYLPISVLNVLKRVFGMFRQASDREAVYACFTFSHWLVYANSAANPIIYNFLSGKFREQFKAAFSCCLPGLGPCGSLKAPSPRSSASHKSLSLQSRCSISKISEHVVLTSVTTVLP
Procedure: (§1) The orexin receptor antagonistic activity of the compounds of formula (I) is determined in accordance with the following experimental method.
(§2) Chinese hamster ovary (CHO) cells expressing the human orexin-1 receptor and the human orexin-2 receptor, respectively, are grown in culture medium (Ham F-12 with L-Glutamine) containing 300 μg/ml G418, 100 U/ml penicillin, 100 μg/ml streptomycin and 10% heat inactivated fetal calf serum (FCS). The cells are seeded at 20′000 cells/well into 384-well black clear bottom sterile plates (Greiner). The seeded plates are incubated overnight at 37° C. in 5% CO2.
(§3) Human orexin-A as an agonist is prepared as 1 mM stock solution in MeOH:water (1:1), diluted in HBSS containing 0.1% bovine serum albumin (BSA), NaHCO3: 0.375 g/l and 20 mM HEPES for use in the assay at a final concentration of 3 nM.
(§4) Antagonists are prepared as 10 mM stock solution in DMSO, then diluted in 384-well plates using DMSO followed by a transfer of the dilutions into in HBSS containing 0.1% bovine serum albumin (BSA), NaHCO3: 0.375 g/l and 20 mM HEPES. On the day of the assay, 50 μl of staining buffer (HBSS containing 1% FCS, 20 mM HEPES, NaHCO3: 0.375 g/l, 5 mM probenecid (Sigma) and 3 μM of the fluorescent calcium indicator fluo-4 AM (1 mM stock solution in DMSO, containing 10% pluronic) is added to each well. The 384-well cell-plates are incubated for 50 min at 37° C. in 5% CO2 followed by equilibration at rt for 30-120 min before measurement.
(§5) Within the Fluorescent Imaging Plate Reader (FLIPR Tetra, Molecular Devices), antagonists are added to the plate in a volume of 10 μl/well, incubated for 10 min and finally 10 μl/well of agonist is added. Fluorescence is measured for each well at 1 second intervals, and the height of each fluorescence peak is compared to the height of the fluorescence peak induced by 3 nM orexin-A with vehicle in place of antagonist. For each antagonist, the IC50 value (the concentration of compound needed to inhibit 50% of the agonistic response) is determined and normalized using the obtained IC50 value of a on-plate reference compound. Optimized conditions were achieved by adjustment of pipetting speed and cell splitting regime. The calculated IC50 values of the compounds may fluctuate depending on the daily cellular assay performance. Fluctuations of this kind are known to those skilled in the art.

human orexin-2 receptor = molecular target: T2, human orexin-2 receptor (Homo sapiens, UniProt O43614); assay: FLIPR intracellular calcium assay, orexin receptor antagonistic activity (OX2); assay type: cell-based; conditions: CHO cells expressing human orexin-2 receptor; agonist 3 nM orexin-A; normalized to on-plate reference; * geomean n = 5, *2 geomean n = 2
T2 construct: expressed in transfected cells; host or cells: CHO cells (G418 selection)
T2 sequence (O43614 1-444): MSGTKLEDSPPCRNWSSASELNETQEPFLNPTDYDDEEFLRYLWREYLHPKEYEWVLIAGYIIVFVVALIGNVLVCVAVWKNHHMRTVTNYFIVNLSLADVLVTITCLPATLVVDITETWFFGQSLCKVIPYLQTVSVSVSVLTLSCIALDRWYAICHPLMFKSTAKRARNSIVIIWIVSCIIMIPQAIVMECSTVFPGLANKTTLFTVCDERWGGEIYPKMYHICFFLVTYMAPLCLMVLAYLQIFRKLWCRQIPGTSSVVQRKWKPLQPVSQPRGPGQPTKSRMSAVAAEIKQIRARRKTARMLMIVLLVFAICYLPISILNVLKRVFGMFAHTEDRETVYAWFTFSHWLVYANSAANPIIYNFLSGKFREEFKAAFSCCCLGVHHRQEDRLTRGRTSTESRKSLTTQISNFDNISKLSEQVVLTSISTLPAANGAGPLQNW
Procedure: as §1, §2, §3, §4, §5

Compound	IC50 (human orexin-1 receptor) [nM]	IC50 (human orexin-2 receptor) [nM]
COc1cccc(OC)c1C1OCC(=O)N1Cc1ccc(OCC2CC2)cc1 (centres unmarked) [Example 65, 3-(4-Cyclopropylmethoxy-benzyl)-2-(2,6-dimethoxy-phenyl)-oxazolidin-4-one]	6320	243
CCOc1ccccc1C1OCC(=O)N1Cc1ccc(OC)cc1 (centres unmarked) [Example 27, 2-(2-Ethoxy-phenyl)-3-(4-methoxy-benzyl)-oxazolidin-4-one]	> 10000	353
CCOc1ccccc1C1OCC(=O)N1Cc1c(Cl)cccc1Cl (centres unmarked) [Example 23, 3-(2,6-Dichloro-benzyl)-2-(2-ethoxy-phenyl)-oxazolidin-4-one]	1840	787
CCOc1ccccc1C1OCC(=O)N1Cc1ccc(F)c(Cl)c1 (centres unmarked) [Example 9, 3-(3-Chloro-4-fluoro-benzyl)-2-(2-ethoxy-phenyl)-oxazolidin-4-one]	8740	79
CCOc1ccccc1C1OCC(=O)N1Cc1ccc(C(F)(F)F)c(F)c1 (centres unmarked) [Example 15, 2-(2-Ethoxy-phenyl)-3-(3-fluoro-4-trifluoromethyl-benzyl)-oxazolidin-4-one]	> 10000	359
CCOc1ccccc1C1OCC(=O)N1Cc1ccc(C)c(Cl)c1 (centres unmarked) [Example 31, 3-(3-Chloro-4-methyl-benzyl)-2-(2-ethoxy-phenyl)-oxazolidin-4-one]	7600	634
COc1cccc(OC)c1C1OCC(=O)N1Cc1cccc(OC(F)(F)F)c1 (centres unmarked) [Example 35, 2-(2,6-Dimethoxy-phenyl)-3-(3-trifluoromethoxy-benzyl)-oxazolidin-4-one]	2890	618
3-(3-Chloro-4-methyl-benzyl)-2-(2,6-dimethoxy-phenyl)-oxazolidin-4-one [Example 43]	553	349
CCOc1ccccc1C1OCC(=O)N1Cc1cccc(OC(F)(F)F)c1 (centres unmarked) [Example 7, 2-(2-Ethoxy-phenyl)-3-(3-trifluoromethoxy-benzyl)-oxazolidin-4-one]	6810	74
CCOc1ccccc1C1OCC(=O)N1Cc1ccc(Cl)cc1 (centres unmarked) [Example 21, 3-(4-Chloro-benzyl)-2-(2-ethoxy-phenyl)-oxazolidin-4-one]	> 10000	696
CCOc1ccccc1C1OCC(=O)N1Cc1cccc(C(F)(F)F)c1C (centres unmarked) [Example 11, 2-(2-Ethoxy-phenyl)-3-(2-methyl-3-trifluoromethyl-benzyl)-oxazolidin-4-one]	5410	385
CCOc1ccccc1C1OCC(=O)N1Cc1ccc(F)c(C(F)(F)F)c1 (centres unmarked) [Example 14, 2-(2-Ethoxy-phenyl)-3-(4-fluoro-3-trifluoromethyl-benzyl)-oxazolidin-4-one]	> 10000	169
CCOc1ccccc1C1OCC(=O)N1Cc1cccc(C)c1 (centres unmarked) [Example 24, 2-(2-Ethoxy-phenyl)-3-(3-methyl-benzyl)-oxazolidin-4-one]	> 10000	363
CCOc1ccccc1C1OCC(=O)N1Cc1ccc(Cl)c(Cl)c1 (centres unmarked) [Example 29, 3-(3,4-Dichloro-benzyl)-2-(2-ethoxy-phenyl)-oxazolidin-4-one]	> 10000	696

Further lines, results first:

IC50 (human orexin-1 receptor) [nM]	IC50 (human orexin-2 receptor) [nM]	Compound
726	41	COc1cccc(OC)c1C1O[C@H](C)C(=O)N1Cc1ccc(OC(F)F)cc1 (stereo partly drawn) [Example 52, 3-(4-Difluoromethoxy-benzyl)-2-(2,6-dimethoxy-phenyl)-(R)-5-methyl-oxazolidin-4-one]
1710	81	CCCOc1ccc(CN2C(=O)COC2c2c(OC)cccc2OC)cc1 (centres unmarked) [Example 54, 2-(2,6-Dimethoxy-phenyl)-3-(4-propoxy-benzyl)-oxazolidin-4-one]
1180	68	COc1cccc(OC)c1C1OCC(=O)N1Cc1ccc(Oc2ccccc2)cc1 (centres unmarked) [Example 47, 2-(2,6-Dimethoxy-phenyl)-3-(4-phenoxy-benzyl)-oxazolidin-4-one]
260	216	COc1cccc(OC)c1C1O[C@H](C)C(=O)N1Cc1ccc(OC(F)(F)F)cc1 (stereo partly drawn) [Example 63, 2-(2,6-Dimethoxy-phenyl)-(R)-5-methyl-3-(4-trifluoromethoxy-benzyl)-oxazolidin-4-one]
139	1940	CCOc1ccc(CN2C(=O)C(C)(C)OC2c2c(OC)cccc2OC)cc1 (centres unmarked) [Example 80, 2-(2,6-Dimethoxy-phenyl)-3-(4-ethoxy-benzyl)-5,5-dimethyl-oxazolidin-4-one]
1210	3060	COc1cccc(OC)c1C1OC(C)(C)C(=O)N1Cc1ccc(Oc2cnccn2)cc1 (centres unmarked) [Example 92, 2-(2,6-Dimethoxy-phenyl)-5,5-dimethyl-3-[4-(pyrazin-2-yloxy)-benzyl]-oxazolidin-4-one]
472	620	COc1cccc(OC)c1C1OC(C)(C)C(=O)N1Cc1ccc(OCC2CC2)cc1 (centres unmarked) [Example 78, 3-(4-Cyclopropylmethoxy-benzyl)-2-(2,6-dimethoxy-phenyl)-5,5-dimethyl-oxazolidin-4-one]
164	111	COc1cccc(OC)c1C1O[C@H](C)C(=O)N1Cc1ccc(OC(F)(F)F)c(Cl)c1 (stereo partly drawn) [Example 56, 3-(3-Chloro-4-trifluoromethoxy-benzyl)-2-(2,6-dimethoxy-phenyl)-(R)-5-methyl-oxazolidin-4-one]
25	62	CCOc1cccc(OC)c1C1OC(C)(C)C(=O)N1Cc1ccc(Oc2ccccc2)cc1 (centres unmarked) [Example 97, 2-(2-Ethoxy-6-methoxy-phenyl)-5,5-dimethyl-3-(4-phenoxy-benzyl)-oxazolidin-4-one]
581	86	CCCOc1ccc(CN2C(=O)[C@@H](C)OC2c2c(OC)cccc2OC)cc1 (stereo partly drawn) [Example 73, 2-(2,6-Dimethoxy-phenyl)-(R)-5-methyl-3-(4-propoxy-benzyl)-oxazolidin-4-one]
830	864	CCOc1ccc(CN2C(=O)[C@@H](C)O[C@@H]2c2c(OC)cccc2OC)cc1 [Example 79, 2-(2,6-Dimethoxy-phenyl)-3-(4-ethoxy-benzyl)-(r)-5-methyl-oxazolidin-4-one]
188	2270	COc1ccc(CN2C(=O)C(C)(C)OC2c2c(OC)cccc2OC)cc1 (centres unmarked) [Example 72, 2-(2,6-Dimethoxy-phenyl)-3-(4-methoxy-benzyl)-5,5-dimethyl-oxazolidin-4-one]
80	150	COc1cccc(OCCCO)c1C1OC(C)(C)C(=O)N1Cc1ccc(Oc2ccccc2)cc1 (centres unmarked) [Example 99, 2-[2-(3-Hydroxy-propoxy)-6-methoxy-phenyl]-5,5-dimethyl-3-(4-phenoxy-benzyl)-oxazolidin-4-one]
1760	467	COc1cccc(OC)c1C1OCC(=O)N1Cc1c(C)cccc1C (centres unmarked) [Example 44, 2-(2,6-Dimethoxy-phenyl)-3-(2,6-dimethyl-benzyl)-oxazolidin-4-one]
